#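 Here, GI50 denotes the concentration required for 50% inhibition of growth. At the TGI there is no net growth.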
# Tests used:
# Assay in all cases: inhibition of tumour cell growth, NCI panel, 384-well format
# [1] = system: 786-0 renal
# [2] = system: A498 renal
# [3] = system: A549 NSCLC
# [4] = system: ACHN renal
# [5] = system: BT-549 breast
# [6] = system: CAKI-1 renal
# [7] = system: CCRF-CEM leukemia
# [8] = system: COLO 205 colon
# [9] = system: DU-145 prostate
# [10] = system: EKVX NSCLC
# [11] = system: HCC-2998 colon
# [12] = system: HCT-116 colon
# [13] = system: HCT-15 colon
# [14] = system: HL-60(TB) leukemia
# [15] = system: HOP-62 NSCLC
# [16] = system: HOP-92 NSCLC
# [17] = system: HS 578T breast
# [18] = system: HT29 colon
# [19] = system: IGROV1 ovarian
# [20] = system: K-562 leukemia
# [21] = system: KM12 colon
# [22] = system: LOX IMVI melanoma
# [23] = system: M14 melanoma
# [24] = system: MALME-3M melanoma
# [25] = system: MCF7 breast
# [26] = system: MDA-MB-435 melanoma
# [27] = system: MDA-MB-468 breast
# [28] = system: MOLT-4 leukemia
# [29] = system: NCI-H226 lung
# [30] = system: NCI-H23 lung
# [31] = system: NCI-H322M lung
# [32] = system: NCI-H460 NSCLC
# [33] = system: NCI-H522 lung
# [34] = system: NCI/ADR-RES ovarian
# [35] = system: OVCAR-3 ovarian
# [36] = system: OVCAR-4 ovarian
# [37] = system: OVCAR-8 ovarian
# [38] = system: PC-3 prostate
# [39] = system: RPMI-8226 leukemia
# [40] = system: RXF 393 renal
# [41] = system: SF-268 CNS
# [42] = system: SF-295 CNS
# [43] = system: SF-539 CNS
# [44] = system: SK-MEL-2 melanoma
# [45] = system: SK-MEL-28 melanoma
# [46] = system: SK-MEL-5 melanoma
# [47] = system: SK-OV-3 ovarian
# [48] = system: SN12C renal
# [49] = system: SNB-19 CNS
# [50] = system: SNB-75 CNS
# [51] = system: SW-620 colon
# [52] = system: TK-10 renal
# [53] = system: U251 glioblastoma
# [54] = system: UACC-257 melanoma
# [55] = system: UACC-62 melanoma
smiles,measurement,setting,value
COc1cc(OC)c(C(=O)C(CN(C)C)CN(C)C)cc1OC,GI50,[1],2.27 µM
same,TGI,[1],4.92 µM
same,GI50,[2],12.5 µM
same,TGI,[2],25.1 µM
same,GI50,[3],14.1 µM
same,TGI,[3],27.6 µM
same,GI50,[4],1.41 µM
same,TGI,[4],2.74 µM
same,GI50,[5],3.06 µM
same,TGI,[5],8.06 µM
same,GI50,[6],1.02 µM
same,TGI,[6],2.22 µM
same,GI50,[7],0.369 µM
same,TGI,[7],1.38 µM
same,GI50,[8],0.696 µM
same,TGI,[8],1.96 µM
same,GI50,[9],4.56 µM
same,TGI,[9],15 µM
same,GI50,[10],10.4 µM
same,TGI,[10],22.3 µM
same,GI50,[11],4.8 µM
same,TGI,[11],18.6 µM
same,GI50,[12],1.41 µM
same,TGI,[12],2.82 µM
same,GI50,[13],1.49 µM
same,TGI,[13],2.88 µM
same,GI50,[14],0.146 µM
same,TGI,[14],0.279 µM
same,GI50,[15],22 µM
same,TGI,[15],36.6 µM
same,GI50,[16],2.12 µM
same,TGI,[16],3.66 µM
same,GI50,[17],7.53 µM
same,TGI,[17],19.8 µM
same,GI50,[18],3.42 µM
same,TGI,[18],12.9 µM
same,GI50,[19],2.06 µM
same,TGI,[19],4.43 µM
same,GI50,[20],6 µM
same,TGI,[20],18.1 µM
same,GI50,[21],3.64 µM
same,TGI,[21],9.17 µM
same,GI50,[22],6.55 µM
same,TGI,[22],19.9 µM
same,GI50,[23],2.16 µM
same,TGI,[23],4.3 µM
same,GI50,[24],0.999 µM
same,TGI,[24],2.17 µM
same,GI50,[25],1.83 µM
same,TGI,[25],3.77 µM
same,GI50,[26],3.27 µM
same,TGI,[26],8.94 µM
same,GI50,[27],0.317 µM
same,TGI,[27],0.697 µM
same,GI50,[28],0.225 µM
same,TGI,[28],0.591 µM
same,GI50,[29],1.91 µM
same,TGI,[29],4.42 µM
same,GI50,[30],2.17 µM
same,TGI,[30],4.18 µM
same,GI50,[31],18.4 µM
same,TGI,[31],32.5 µM
same,GI50,[32],2.75 µM
same,TGI,[32],6.41 µM
same,GI50,[33],0.382 µM
same,TGI,[33],1.57 µM
same,GI50,[34],2.12 µM
same,TGI,[34],4.11 µM
same,GI50,[35],1.71 µM
same,TGI,[35],3.37 µM
same,GI50,[36],1.81 µM
same,TGI,[36],3.21 µM
same,GI50,[37],1.44 µM
same,TGI,[37],2.84 µM
same,GI50,[38],3 µM
same,TGI,[38],7.62 µM
same,GI50,[39],0.419 µM
same,TGI,[39],1.14 µM
same,GI50,[40],1.92 µM
same,TGI,[40],3.44 µM
same,GI50,[41],17.2 µM
same,TGI,[41],31.1 µM
same,GI50,[42],19.2 µM
same,TGI,[42],39.3 µM
same,GI50,[43],1.6 µM
same,TGI,[43],3.06 µM
same,GI50,[44],1.7 µM
same,TGI,[44],3.67 µM
same,GI50,[45],3.32 µM
same,TGI,[45],7.76 µM
same,GI50,[46],5.64 µM
same,TGI,[46],18.4 µM
same,GI50,[47],16.9 µM
same,TGI,[47],30.7 µM
same,GI50,[48],1.81 µM
same,TGI,[48],3.58 µM
same,GI50,[49],14.4 µM
same,TGI,[49],27.7 µM
same,GI50,[50],19.8 µM
same,TGI,[50],34.1 µM
same,GI50,[51],1.14 µM
same,TGI,[51],2.44 µM
same,GI50,[52],1.54 µM
same,TGI,[52],3.04 µM
same,GI50,[53],7.75 µM
same,TGI,[53],20 µM
same,GI50,[54],1.41 µM
same,TGI,[54],2.81 µM
same,GI50,[55],2.06 µM
same,TGI,[55],4.4 µM

# Reference: PubChem BioAssay (NCI)
